For orientation: AUC means the area under the concentration-time curve, a measure of exposure. High values mean more exposure, low ones less exposure. A word on the logD: it is lipophilicity at a set pH, counting ionised and neutral species. Read a low logD as a more hydrophilic compound. By pIC50 is commonly meant −log10 of the IC50, conventionally taken in molar units. The low end stands for a large IC50, the high end for a small IC50. A word on the fraction unbound: it is the share of the substance not bound to proteins or other matrix. Higher therefore signals much free substance. A word on the bioavailability: it is the share of a dose that reaches the circulation, judged against a reference dose that is usually intravenous. The low end stands for little systemic uptake, the high end for much systemic uptake. The solubility is the concentration that dissolves in the medium under given conditions. A high value points to a readily soluble substance. As a reminder, the Papp A→B is how fast a substance crosses the layer from the apical side.

pIC50: −log10 of the molar value. ≈ marks a conversion by molar mass, not a printed value.

Data set [1] is described as follows: AUC in mouse at 50 mg/kg, po. Details: dose 50 mg/kg, route oral. Conditions: plasma. It is filed as ADME, organism-based.
Data set [2] in a line: Lipophilicity, log D of the compound at pH 7.4. The note with it: buffer. It is filed as physicochemical.
Data set [3] relates to LoVo. In words: Antitumor activity against human LoVo cells xenografted in mouse assessed as tumor growth inhibition at 100 mg/kg, po qd. It is filed as functional. The note with it: read-out: TGI. A general note: In xenograft studies the graft and the host belong to different species.
Data set [4] has as its system KB. In words: Antiproliferative activity against human KB cells. It is filed as functional, cell-based.
Data set [5] deals with T1, Receptor tyrosine-protein kinase erbB-2 (Homo sapiens, UniProt P04626). In words: Inhibition of full-length HER2 phosphorylation transfected in human MCF-7 cl.24 cells after 4 hrs by laser scanning fluorescence microplate cytometry. It is filed as cell-based.
Data set [6] deals with T1, Receptor tyrosine-protein kinase erbB-2. The data set is described as follows: Inhibition of human HER2 kinase domain expressed in baculovirus/Sf21 system by ELISA. On the technique in general: In an ELISA, binding on a coated surface is turned into a signal by an enzyme label.
A short description of data set [7]: Fraction unbound in human plasma. It is filed as ADME, cell-free.
A short description of data set [8]: Fraction unbound in rat plasma. It is filed as ADME, cell-free.
Data set [9] deals with T2, Cytochrome P450 1A2 (Homo sapiens, UniProt P05177).
T2 sequence (P05177 whole entry): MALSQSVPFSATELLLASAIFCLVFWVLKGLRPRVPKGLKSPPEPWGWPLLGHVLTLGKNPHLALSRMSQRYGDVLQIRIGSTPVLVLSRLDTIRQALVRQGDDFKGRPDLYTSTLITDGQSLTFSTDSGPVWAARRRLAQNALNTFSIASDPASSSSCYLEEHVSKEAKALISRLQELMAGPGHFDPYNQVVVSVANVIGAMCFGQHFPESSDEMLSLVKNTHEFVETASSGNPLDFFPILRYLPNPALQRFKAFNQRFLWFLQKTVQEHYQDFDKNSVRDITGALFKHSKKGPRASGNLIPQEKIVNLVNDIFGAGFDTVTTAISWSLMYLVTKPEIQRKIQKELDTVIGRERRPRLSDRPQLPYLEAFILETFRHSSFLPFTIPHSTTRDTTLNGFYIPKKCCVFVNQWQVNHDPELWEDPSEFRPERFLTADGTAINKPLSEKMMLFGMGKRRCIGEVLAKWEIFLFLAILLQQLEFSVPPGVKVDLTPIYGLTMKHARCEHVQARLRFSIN
In words: Inhibition of CYP1A2 (unknown origin). It is filed as ADME.

A short description of data set [10]: Bioavailability in AP-Wistar rat at 5 mg/kg, po and 2 mg/kg, iv. It is filed as ADME, organism-based. The note with it: in vivo.
The nature of data set [11]: Aqueous solubility of the compound in phosphate buffer at pH 6.8. It is filed as physicochemical.
Data set [12] is described as follows: Apparent permeability from apical to basolateral side of human Caco2 cells at 10 uM. The note with it: Caco-2. It is filed as ADME, cell-based. A general note: Caco-2 monolayers are a common model of the intestinal barrier.
Data set [13] addresses Cytochrome P450 2D6 (Homo sapiens, UniProt P10635). The data set is described as follows: Inhibition of CYP2D6 (unknown origin). It is filed as ADME.
Data set [14] is described as follows: Clearance in AP-Wistar rat at 5 mg/kg, po and 2 mg/kg, iv. It is filed as ADME, organism-based. Conditions: in vivo.
Data set [15] in a line: Volume of distribution at steady state in dog at 2 mg/kg, po and 1 mg/kg, iv. The note with it: in vivo, read-out: Vdss. It is filed as ADME, organism-based, Canis lupus familiaris.
The nature of data set [16]: Clearance in dog at 2 mg/kg, po and 1 mg/kg, iv. Conditions: in vivo. It is filed as ADME, organism-based, Canis lupus familiaris.
For data set [17], the target named is Cytochrome P450 2C19 (Homo sapiens, UniProt P33261). The data set is described as follows: Inhibition of CYP2C19 (unknown origin). It is filed as ADME.
A short description of data set [18]: Intrinsic clearance in human hepatocytes assessed per million cells. It is filed as ADME, cell-based, Hepatocyte. The note with it: read-out: CLH.
Data set [19] is described as follows: Volume of distribution at steady state in AP-Wistar rat at 5 mg/kg, po and 2 mg/kg, iv. Conditions: in vivo, read-out: Vdss. It is filed as ADME, organism-based.
The target of data set [20] is Cytochrome P450 2C9 (Homo sapiens, UniProt P11712). The data set is described as follows: Inhibition of CYP2C9 (unknown origin). It is filed as ADME.
Data set [21] can be described thus: Bioavailability in dog at 2 mg/kg, po and 1 mg/kg, iv. It is filed as ADME, organism-based, Canis lupus familiaris. Conditions: in vivo.

T1 sequence (P04626 whole entry, the tested form may be a part): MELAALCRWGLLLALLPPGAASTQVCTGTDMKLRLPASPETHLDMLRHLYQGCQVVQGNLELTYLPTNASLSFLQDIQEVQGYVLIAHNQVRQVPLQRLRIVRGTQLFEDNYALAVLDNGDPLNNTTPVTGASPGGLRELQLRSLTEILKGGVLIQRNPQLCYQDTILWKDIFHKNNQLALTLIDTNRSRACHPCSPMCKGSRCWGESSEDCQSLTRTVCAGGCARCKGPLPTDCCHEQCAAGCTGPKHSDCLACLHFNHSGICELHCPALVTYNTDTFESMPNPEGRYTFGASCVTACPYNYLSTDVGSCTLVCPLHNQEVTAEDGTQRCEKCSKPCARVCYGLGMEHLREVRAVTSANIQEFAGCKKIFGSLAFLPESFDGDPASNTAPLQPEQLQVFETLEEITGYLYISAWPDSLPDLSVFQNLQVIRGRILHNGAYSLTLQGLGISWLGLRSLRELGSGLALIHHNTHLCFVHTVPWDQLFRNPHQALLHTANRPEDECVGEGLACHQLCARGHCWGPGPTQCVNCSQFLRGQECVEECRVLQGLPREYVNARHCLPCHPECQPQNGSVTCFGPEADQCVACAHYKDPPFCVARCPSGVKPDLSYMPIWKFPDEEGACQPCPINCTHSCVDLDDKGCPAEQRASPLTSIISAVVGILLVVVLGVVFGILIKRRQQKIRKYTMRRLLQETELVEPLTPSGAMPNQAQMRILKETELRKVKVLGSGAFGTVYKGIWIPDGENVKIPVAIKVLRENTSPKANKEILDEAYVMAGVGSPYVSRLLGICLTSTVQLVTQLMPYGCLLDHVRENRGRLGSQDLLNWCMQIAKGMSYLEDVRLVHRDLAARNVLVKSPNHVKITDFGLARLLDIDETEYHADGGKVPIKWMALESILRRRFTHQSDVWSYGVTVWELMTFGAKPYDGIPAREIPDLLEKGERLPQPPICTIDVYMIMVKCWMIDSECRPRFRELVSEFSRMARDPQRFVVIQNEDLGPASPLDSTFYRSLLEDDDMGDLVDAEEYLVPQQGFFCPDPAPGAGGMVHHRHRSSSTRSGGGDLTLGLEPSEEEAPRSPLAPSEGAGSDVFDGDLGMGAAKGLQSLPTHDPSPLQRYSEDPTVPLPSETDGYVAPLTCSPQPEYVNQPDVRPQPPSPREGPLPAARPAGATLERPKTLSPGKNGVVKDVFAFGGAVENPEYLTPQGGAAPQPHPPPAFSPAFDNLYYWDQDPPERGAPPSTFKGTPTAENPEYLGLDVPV
Cytochrome P450 2C9, sequence (P11712 whole entry): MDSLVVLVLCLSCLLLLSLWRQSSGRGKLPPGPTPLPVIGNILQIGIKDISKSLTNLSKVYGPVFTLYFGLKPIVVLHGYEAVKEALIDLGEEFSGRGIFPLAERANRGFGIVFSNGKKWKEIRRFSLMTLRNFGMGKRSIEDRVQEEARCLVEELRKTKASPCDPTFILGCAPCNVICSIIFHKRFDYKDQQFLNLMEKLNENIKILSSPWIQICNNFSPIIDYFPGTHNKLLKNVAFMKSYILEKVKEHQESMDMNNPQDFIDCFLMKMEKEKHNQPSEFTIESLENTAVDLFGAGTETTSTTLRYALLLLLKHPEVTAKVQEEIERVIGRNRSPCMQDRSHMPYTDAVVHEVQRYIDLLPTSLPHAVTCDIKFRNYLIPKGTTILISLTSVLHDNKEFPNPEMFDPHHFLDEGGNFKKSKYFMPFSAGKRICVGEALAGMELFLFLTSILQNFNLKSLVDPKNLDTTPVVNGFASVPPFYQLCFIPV
Cytochrome P450 2C19, sequence (P33261 whole entry): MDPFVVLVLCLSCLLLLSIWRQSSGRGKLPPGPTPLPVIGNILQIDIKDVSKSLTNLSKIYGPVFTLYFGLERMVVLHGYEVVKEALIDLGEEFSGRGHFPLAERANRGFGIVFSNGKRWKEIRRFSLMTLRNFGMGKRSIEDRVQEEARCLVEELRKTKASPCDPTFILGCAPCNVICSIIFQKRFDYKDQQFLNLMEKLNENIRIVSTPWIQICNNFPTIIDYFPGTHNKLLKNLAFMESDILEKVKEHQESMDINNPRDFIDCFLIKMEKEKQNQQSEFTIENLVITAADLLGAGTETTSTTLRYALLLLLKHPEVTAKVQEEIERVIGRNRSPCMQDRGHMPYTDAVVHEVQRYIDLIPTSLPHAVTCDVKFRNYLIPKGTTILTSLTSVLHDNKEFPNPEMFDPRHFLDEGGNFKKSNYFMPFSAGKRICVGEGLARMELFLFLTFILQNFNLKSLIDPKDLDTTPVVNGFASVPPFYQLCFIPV
Cytochrome P450 2D6, sequence (P10635 whole entry): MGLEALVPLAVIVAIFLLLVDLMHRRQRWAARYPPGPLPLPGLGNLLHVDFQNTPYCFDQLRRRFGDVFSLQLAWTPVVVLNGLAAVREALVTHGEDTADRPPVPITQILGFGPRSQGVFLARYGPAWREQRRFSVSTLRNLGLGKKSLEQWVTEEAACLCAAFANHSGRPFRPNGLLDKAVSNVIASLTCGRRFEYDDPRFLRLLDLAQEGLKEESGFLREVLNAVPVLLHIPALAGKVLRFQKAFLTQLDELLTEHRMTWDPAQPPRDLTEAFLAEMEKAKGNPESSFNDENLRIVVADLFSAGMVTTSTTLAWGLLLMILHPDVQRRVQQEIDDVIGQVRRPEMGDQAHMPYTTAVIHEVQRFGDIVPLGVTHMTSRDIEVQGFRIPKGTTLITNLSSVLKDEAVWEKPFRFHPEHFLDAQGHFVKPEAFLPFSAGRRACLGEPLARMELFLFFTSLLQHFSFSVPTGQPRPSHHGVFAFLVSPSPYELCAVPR

In turn, `COc1cc2ncnc(Nc3cccc(Cl)c3F)c2cc1OC1CCN(CC(N)=O)CC1` gave an area under the curve (AUC) in data set [1] of 19 µM·h. The compound also displayed a logD in data set [2] of 3.1. For the same compound, the inhibition in vivo at 100 mg/kg in [3] was 36%. In [4], this compound showed a pIC50 of 8.40.

For the compound `CCNC(=O)CN1CCC(Oc2cc3c(Nc4cccc(Cl)c4F)ncnc3cc2OC)CC1`, the pIC50 in data set [5] is 6.92; in data set [6], 7.48.

As to `COCCNC(=O)CN1CCC(Oc2cc3c(Nc4cccc(Cl)c4F)ncnc3cc2OC)CC1`, the pIC50 in data set [5] was 6.60; in [6], 7.04.

In the case of `COc1cc2ncnc(Nc3cccc(Cl)c3F)c2cc1OC1CCN(CC(=O)NC(C)C)CC1`, the negative logarithm of the IC50 (pIC50) in data set [5] was 6.39; in [6], 6.96.

On to `COc1cc2ncnc(Nc3cccc(Cl)c3F)c2cc1OC1CCN(CC(=O)N(C)C)CC1`, for which the negative-log IC50 (pIC50) is 6.17 in data set [5] and 6.66 in data set [6].

Compound `CNC(=O)CN1CCC(Oc2cc3c(Nc4ccc(F)c(Cl)c4)ncnc3cc2OC)CC1` returned an AUC in data set [1] of 19 µM·h. The fraction unbound in data set [7] came out at 0.027; in data set [8] it was 0.029. Further, the logD in data set [2] was found to be 4. Further, the negative logarithm of the IC50 (pIC50) in [5] was 6.58. In data set [3], the inhibition in vivo at 100 mg/kg was determined as 28%.

With `CNC(=O)CN1CCC(Oc2cc3c(Nc4ccc(F)c(Cl)c4F)ncnc3cc2OC)CC1`, in data set [5], the pIC50 is 7.05.

As for `CNC(=O)CN1CCC(Oc2cc3c(Nc4cccc(Cl)c4)ncnc3cc2OC)CC1`, the negative logarithm of the IC50 (pIC50) in data set [5] is 6.44.

`CNC(=O)CN1CCC(Oc2cc3c(Nc4cc(Cl)ccc4F)ncnc3cc2OC)CC1` had a negative-log IC50 (pIC50) in data set [5] of 6.07.

`CNC(=O)CCN1CCC(Oc2cc3c(Nc4cccc(Cl)c4F)ncnc3cc2OC)CC1`: the pIC50 in data set [5] was 6.26.

`CNC(=O)CN1CC(Oc2cc3c(Nc4cccc(Cl)c4F)ncnc3cc2OC)C1` had a pIC50 in data set [5] of 5.96.

The compound `CNC(=O)CN(C)CCOc1cc2c(Nc3cccc(Cl)c3F)ncnc2cc1OC` showed a negative logarithm of the IC50 (pIC50) in [5] of 5.82.

In [5], `CNC(=O)CN1CCCC(Oc2cc3c(Nc4cccc(Cl)c4F)ncnc3cc2OC)C1` (racemic) had a pIC50 of 6.64.

Compound `CNC(=O)CN1CCC(Oc2cc3c(Nc4cccc(Cl)c4F)ncnc3cc2OC)C1` (racemic) showed a pIC50 in data set [5] of 6.60.

As to `CNC(=O)CN1CCC(Oc2cc3c(Nc4cccc(Cl)c4F)ncnc3cc2OC)CC1` [SAPITINIB], the negative logarithm of the IC50 (pIC50) in [9] is under 5.00; in [13] it was under 5.00; in data set [17] it was under 5.00; in [5], 7.22; in data set [20] it was under 5.00; in data set [6], 7.85. Besides, the results for the bioavailability in data set [10] and in data set [21] were 38% and 89%, respectively. In data set [11], this compound registered a solubility of 17 µM (≈ 8.06 µg/mL). The apical-to-basolateral permeability (Papp A→B) at 10 µM in data set [12] was found to be 15.9 ×10⁻⁶ cm/s. Further, in data set [1], the AUC turned out to be 66 µM·h. In addition, the figures for the free fraction (fraction unbound) in data set [7] and in data set [8] were 0.067 and 0.072, respectively. Moreover, the clearance in [14] amounted to 13 mL/min/kg; in data set [16], 1.1 mL/min/kg. Also, the Vd amounted to 0.2 L/kg in data set [15] and 0.8 L/kg in data set [19]. Further, the log distribution coefficient (logD) in data set [2] came to 3.2. Besides, the hepatocyte CLint in data set [18] is under 4.5 µL/min/1e6 cells. For the same compound, the inhibition in vivo at 100 mg/kg in data set [3] came to 76%.

Source of the values: ChEMBL document CHEMBL2407034, “Discovery of AZD8931, an Equipotent, Reversible Inhibitor of Signaling by EGFR, HER2, and HER3 Receptors” (ACS Med Chem Lett, 2013).
